Assay results from PubChem BioAssay (NCI).
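These data come from cells grown in 96-well plates and exposed to compound for 48 hours at five concentrations. Here, GI50 denotes the concentration required for 50% inhibition of growth. TGI is the concentration that stops growth completely.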

Key:
Experiment in all cases: growth of human tumour cells (NCI), 48 h
COLO 205 colon = system: COLO 205 colon
NCI-H522 lung = system: NCI-H522 lung
UACC-257 melanoma = system: UACC-257 melanoma
NCI/ADR-RES ovarian = system: NCI/ADR-RES ovarian
OVCAR-5 ovarian = system: OVCAR-5 ovarian
SF-295 CNS = system: SF-295 CNS
OVCAR-4 ovarian = system: OVCAR-4 ovarian
MOLT-4 leukemia = system: MOLT-4 leukemia
MCF7 breast = system: MCF7 breast
HOP-62 NSCLC = system: HOP-62 NSCLC
OVCAR-8 ovarian = system: OVCAR-8 ovarian
BT-549 breast = system: BT-549 breast
SR leukemia = system: SR leukemia
NCI-H226 lung = system: NCI-H226 lung
MALME-3M melanoma = system: MALME-3M melanoma
SNB-75 CNS = system: SNB-75 CNS
SF-539 CNS = system: SF-539 CNS
HCT-15 colon = system: HCT-15 colon
HCT-116 colon = system: HCT-116 colon
A498 renal = system: A498 renal
DU-145 prostate = system: DU-145 prostate
SK-OV-3 ovarian = system: SK-OV-3 ovarian
PC-3 prostate = system: PC-3 prostate
SK-MEL-5 melanoma = system: SK-MEL-5 melanoma
HCC-2998 colon = system: HCC-2998 colon
SK-MEL-28 melanoma = system: SK-MEL-28 melanoma
SF-268 CNS = system: SF-268 CNS
CAKI-1 renal = system: CAKI-1 renal
SNB-19 CNS = system: SNB-19 CNS
CCRF-CEM leukemia = system: CCRF-CEM leukemia
SK-MEL-2 melanoma = system: SK-MEL-2 melanoma
A549 NSCLC = system: A549 NSCLC
LOX IMVI melanoma = system: LOX IMVI melanoma
SN12C renal = system: SN12C renal
T-47D breast = system: T-47D breast
786-0 renal = system: 786-0 renal
NCI-H460 lung = system: NCI-H460 lung
TK-10 renal = system: TK-10 renal
HT29 colon = system: HT29 colon
ACHN renal = system: ACHN renal
RPMI-8226 leukemia = system: RPMI-8226 leukemia
UACC-62 melanoma = system: UACC-62 melanoma
K-562 leukemia = system: K-562 leukemia
M14 melanoma = system: M14 melanoma
RXF 393 renal = system: RXF 393 renal
NCI-H23 lung = system: NCI-H23 lung
HL-60(TB) leukemia = system: HL-60(TB) leukemia
SW-620 colon = system: SW-620 colon
UO-31 renal = system: UO-31 renal
MDA-MB-231 breast = system: MDA-MB-231 breast
EKVX NSCLC = system: EKVX NSCLC
MDA-MB-435 = system: MDA-MB-435
HOP-92 NSCLC = system: HOP-92 NSCLC
KM12 colon = system: KM12 colon
U251 CNS = system: U251 CNS
IGROV1 ovarian = system: IGROV1 ovarian
OVCAR-3 ovarian = system: OVCAR-3 ovarian
HS 578T breast = system: HS 578T breast

For `C=C(C)[C@@H]1CC[C@]2(CNCCO)CC[C@]3(C)[C@H](CC[C@@H]4[C@@]5(C)CCC(N)[C@@](C)(CO)[C@@H]5CC[C@]43C)[C@@H]12` (some centres undefined), the GI50 (COLO 205 colon) was 1.59 µM, the TGI (COLO 205 colon) was 3.08 µM and the GI50 (NCI-H522 lung) was 1.95 µM. It also gave a TGI (NCI-H522 lung) of 3.69 µM, a GI50 (UACC-257 melanoma) of 1.85 µM and a TGI (UACC-257 melanoma) of 3.39 µM. It also gave a GI50 (NCI/ADR-RES ovarian) of 12.9 µM, a TGI (NCI/ADR-RES ovarian) of 26.7 µM and a GI50 (OVCAR-5 ovarian) of 2.3 µM. It also gave a TGI (OVCAR-5 ovarian) of 4.79 µM, a GI50 (SF-295 CNS) of 1.76 µM and a TGI (SF-295 CNS) of 3.33 µM. The GI50 (OVCAR-4 ovarian) was 1.9 µM, the TGI (OVCAR-4 ovarian) was 3.99 µM and the GI50 (MOLT-4 leukemia) was 1.56 µM. It also gave a TGI (MOLT-4 leukemia) of 3.85 µM, a GI50 (MCF7 breast) of 1.6 µM and a TGI (MCF7 breast) of 3.17 µM. It also gave a GI50 (HOP-62 NSCLC) of 1.79 µM, a TGI (HOP-62 NSCLC) of 3.28 µM and a GI50 (OVCAR-8 ovarian) of 1.76 µM. The TGI (OVCAR-8 ovarian) was 3.39 µM, the GI50 (BT-549 breast) was 1.74 µM and the TGI (BT-549 breast) was 3.33 µM. It also gave a GI50 (SR leukemia) of 1.68 µM, a TGI (SR leukemia) of 4.08 µM and a GI50 (NCI-H226 lung) of 2.13 µM. It also gave a TGI (NCI-H226 lung) of 5.48 µM, a GI50 (MALME-3M melanoma) of 1.8 µM and a TGI (MALME-3M melanoma) of 3.31 µM. It also gave a GI50 (SNB-75 CNS) of 1.58 µM, a TGI (SNB-75 CNS) of 3.1 µM and a GI50 (SF-539 CNS) of 1.77 µM. For the same molecule, the TGI (SF-539 CNS) was 3.27 µM, the GI50 (HCT-15 colon) was 1.8 µM and the TGI (HCT-15 colon) was 3.57 µM. It also gave a GI50 (HCT-116 colon) of 1.55 µM, a TGI (HCT-116 colon) of 2.96 µM and a GI50 (A498 renal) of 1.36 µM. It also gave a TGI (A498 renal) of 2.85 µM, a GI50 (DU-145 prostate) of 1.65 µM and a TGI (DU-145 prostate) of 3.18 µM. For the same molecule, the GI50 (SK-OV-3 ovarian) was 1.95 µM, the TGI (SK-OV-3 ovarian) was 3.41 µM and the GI50 (PC-3 prostate) was 1.73 µM. It also gave a TGI (PC-3 prostate) of 3.62 µM, a GI50 (SK-MEL-5 melanoma) of 1.74 µM and a TGI (SK-MEL-5 melanoma) of 3.14 µM. The GI50 (HCC-2998 colon) was 1.83 µM, the TGI (HCC-2998 colon) was 3.35 µM and the GI50 (SK-MEL-28 melanoma) was 1.84 µM. The TGI (SK-MEL-28 melanoma) was 3.38 µM, the GI50 (SF-268 CNS) was 1.75 µM and the TGI (SF-268 CNS) was 3.46 µM. The GI50 (CAKI-1 renal) was 2.85 µM, the TGI (CAKI-1 renal) was 7.82 µM and the GI50 (SNB-19 CNS) was 1.83 µM. The TGI (SNB-19 CNS) was 3.36 µM, the GI50 (CCRF-CEM leukemia) was 2.17 µM and the TGI (CCRF-CEM leukemia) was 5.3 µM. For the same molecule, the GI50 (SK-MEL-2 melanoma) was 1.77 µM, the TGI (SK-MEL-2 melanoma) was 3.27 µM and the GI50 (A549 NSCLC) was 1.8 µM. For the same molecule, the TGI (A549 NSCLC) was 3.38 µM, the GI50 (LOX IMVI melanoma) was 1.64 µM and the TGI (LOX IMVI melanoma) was 3.1 µM. For the same molecule, the GI50 (SN12C renal) was 1.75 µM, the TGI (SN12C renal) was 3.41 µM and the GI50 (T-47D breast) was 2.07 µM. For the same molecule, the TGI (T-47D breast) was 3.97 µM, the GI50 (786-0 renal) was 1.68 µM and the TGI (786-0 renal) was 3.11 µM. It also gave a GI50 (NCI-H460 lung) of 1.77 µM, a TGI (NCI-H460 lung) of 3.36 µM and a GI50 (TK-10 renal) of 1.74 µM. The TGI (TK-10 renal) was 3.2 µM, the GI50 (HT29 colon) was 1.46 µM and the TGI (HT29 colon) was 3.18 µM. For the same molecule, the GI50 (ACHN renal) was 1.99 µM, the TGI (ACHN renal) was 3.61 µM and the GI50 (RPMI-8226 leukemia) was 1.65 µM. The TGI (RPMI-8226 leukemia) was 3.91 µM, the GI50 (UACC-62 melanoma) was 1.77 µM and the TGI (UACC-62 melanoma) was 3.19 µM. For the same molecule, the GI50 (K-562 leukemia) was 1.5 µM, the TGI (K-562 leukemia) was 3.7 µM and the GI50 (M14 melanoma) was 1.75 µM. It also gave a TGI (M14 melanoma) of 3.31 µM, a GI50 (RXF 393 renal) of 1.29 µM and a TGI (RXF 393 renal) of 2.62 µM. It also gave a GI50 (NCI-H23 lung) of 2.14 µM, a TGI (NCI-H23 lung) of 3.95 µM and a GI50 (HL-60(TB) leukemia) of 1.33 µM. For the same molecule, the TGI (HL-60(TB) leukemia) was 3.46 µM, the GI50 (SW-620 colon) was 1.93 µM and the TGI (SW-620 colon) was 3.88 µM. It also gave a GI50 (UO-31 renal) of 1.65 µM, a TGI (UO-31 renal) of 3.07 µM and a GI50 (MDA-MB-231 breast) of 1.86 µM. The TGI (MDA-MB-231 breast) was 3.44 µM, the GI50 (EKVX NSCLC) was 1.75 µM and the TGI (EKVX NSCLC) was 3.38 µM. The GI50 (MDA-MB-435) was 1.75 µM, the TGI (MDA-MB-435) was 3.25 µM and the GI50 (HOP-92 NSCLC) was 1.43 µM. For the same molecule, the TGI (HOP-92 NSCLC) was 2.94 µM, the GI50 (KM12 colon) was 1.71 µM and the TGI (KM12 colon) was 3.21 µM. It also gave a GI50 (U251 CNS) of 1.69 µM, a TGI (U251 CNS) of 3.16 µM and a GI50 (IGROV1 ovarian) of 1.98 µM. For the same molecule, the TGI (IGROV1 ovarian) was 4.09 µM, the GI50 (OVCAR-3 ovarian) was 1.75 µM and the TGI (OVCAR-3 ovarian) was 3.29 µM.

Work on `Cc1ncc([N+](=O)[O-])n1CC(O)Cn1ccnc1[N+](=O)[O-]` (centres undefined) yielded a TGI (NCI-H522 lung) of over 100 µM, a TGI (UACC-257 melanoma) of over 100 µM and a TGI (OVCAR-5 ovarian) of over 100 µM. The TGI (SF-295 CNS) was over 100 µM, the TGI (MOLT-4 leukemia) was over 100 µM and the TGI (MCF7 breast) was over 100 µM. It also gave a TGI (HS 578T breast) of over 100 µM, a TGI (HOP-62 NSCLC) of over 100 µM and a TGI (OVCAR-8 ovarian) of over 100 µM. For the same molecule, the TGI (SR leukemia) was over 100 µM, the TGI (NCI-H226 lung) was over 100 µM and the TGI (MALME-3M melanoma) was over 100 µM. It also gave a TGI (SNB-75 CNS) of over 100 µM, a TGI (SF-539 CNS) of over 100 µM and a TGI (HCT-15 colon) of over 100 µM. It also gave a TGI (HCT-116 colon) of over 100 µM, a TGI (A498 renal) of over 100 µM and a TGI (PC-3 prostate) of over 100 µM. It also gave a TGI (SK-MEL-5 melanoma) of over 100 µM, a TGI (HCC-2998 colon) of over 100 µM and a TGI (SK-MEL-28 melanoma) of over 100 µM. It also gave a TGI (SF-268 CNS) of over 100 µM, a TGI (CCRF-CEM leukemia) of over 100 µM and a TGI (SK-MEL-2 melanoma) of over 100 µM. It also gave a TGI (A549 NSCLC) of over 100 µM, a TGI (SN12C renal) of over 100 µM and a TGI (786-0 renal) of over 100 µM. For the same molecule, the TGI (NCI-H460 lung) was over 100 µM, the TGI (TK-10 renal) was over 100 µM and the TGI (HT29 colon) was over 100 µM. The TGI (ACHN renal) was over 100 µM, the TGI (RPMI-8226 leukemia) was over 100 µM and the TGI (K-562 leukemia) was over 100 µM. It also gave a TGI (NCI-H23 lung) of over 100 µM, a TGI (HL-60(TB) leukemia) of over 100 µM and a TGI (SW-620 colon) of over 100 µM. It also gave a TGI (EKVX NSCLC) of over 100 µM, a TGI (KM12 colon) of over 100 µM and a TGI (U251 CNS) of over 100 µM. For the same molecule, the TGI (OVCAR-3 ovarian) was over 100 µM.
